6 molecules from patent US20110105324A1, “Herbicidal Compounds Based on N-Azinyl-N-Phenylsulfonylureas” (BAYER CROPSCIENCE AG, priority 2008, published 2011) can be followed below.

The test system of assay [1] is Pharbitis purpurea. In words: Post-emergence herbicidal activity, greenhouse pot test. In kind it is in vivo, Pharbitis (Ipomoea) purpurea. Conditions: one-leaf stage, 80 g/ha, scored visually after approx. 3 weeks, 100% = plants have died, 0% = like control. As to the method:
(§1) Seeds of monocotyledonous or dicotyledonous weed plants or crop plants are placed in sandy loam in wood fiber pots, covered with soil and grown in a greenhouse under good growth conditions. 2 to 3 weeks after sowing, the test plants are treated in the one-leaf stage. The compounds according to the invention, which are formulated as wettable powders (WP), are then sprayed onto the green plant parts in the form of an aqueous suspension or emulsion with a water application rate of 600 l/ha (converted) with addition of 0.2% of wetting agent. After the test plants have been left to stand in the greenhouse for approximately 3 weeks under optimal growth conditions, the activity of the preparation is scored visually in comparison with untreated controls (herbicidal activity in percent (%): 100% activity=the plants have died, 0% activity=like control plants).

For assay [2], the system named is Abutilon theophrasti. The description is as above. In kind it is in vivo. Conditions: one-leaf stage, 80 g/ha, scored visually after approx. 3 weeks, 100% = plants have died, 0% = like control. As to the method:
as §1

The test system of assay [3] is Polygonum convolvulus. The assay is described as above. Format: in vivo. Conditions: one-leaf stage, 80 g/ha, scored visually after approx. 3 weeks, 100% = plants have died, 0% = like control. As to the method: as §1
Assay [4] has as its system Echinochloa crus-galli. The assay is described as above. Format: in vivo. Particulars: one-leaf stage, 80 g/ha, scored visually after approx. 3 weeks, 100% = plants have died, 0% = like control. As to the method:
as §1

The test system of assay [5] is Viola tricolor. Described as above. In kind it is in vivo. Particulars: one-leaf stage, 80 g/ha, scored visually after approx. 3 weeks, 100% = plants have died, 0% = like control. As to the method:
as §1

The subject of assay [6] is Cyperus esculentus. The assay is described as above. In kind it is in vivo. Conditions: one-leaf stage, 80 g/ha, scored visually after approx. 3 weeks, 100% = plants have died, 0% = like control. As to the method: as §1
Assay [7] relates to Alopecurus myosuroides. The assay is described as above. Format: in vivo. Conditions: one-leaf stage, 80 g/ha, scored visually after approx. 3 weeks, 100% = plants have died, 0% = like control. As to the method: as §1
Assay [8] has as its system Matricaria inodora. The assay is described as above. Format: in vivo. Conditions: one-leaf stage, 80 g/ha, scored visually after approx. 3 weeks, 100% = plants have died, 0% = like control. As to the method: as §1
The subject of assay [9] is Pharbitis purpurea. Kind of assay: Pre-emergence herbicidal activity, greenhouse pot test. Format: in vivo, Pharbitis/Ipomoea purpurea. Conditions: 80 g/ha, scored visually after approx. 3 weeks, 100% = plants have died, 0% = like control. From the text:
(§2) Seeds of monocotyledonous or dicotyledonous weed plants or crop plants are placed in sandy loam in wood fiber pots and covered with soil. The compounds according to the invention, which are formulated as wettable powders (WP), are then applied to the surface of the soil cover in the form of an aqueous suspension or emulsion with a water application rate of 600 l/ha (converted), with addition of 0.2% wetting agent.
(§3) After the treatment, the pots are placed in a greenhouse and maintained under good growth conditions for the test plants. After approximately 3 weeks, the activity of the preparations is scored visually in comparison with untreated controls (herbicidal activity in percent (%): 100% activity=the plants have died, 0% activity=like control plants).

Assay [10] concerns Veronica persica. The description is as above. Format: in vivo. Conditions: 80 g/ha, scored visually after approx. 3 weeks, 100% = plants have died, 0% = like control.
Text: as §2, §3

In assay [11] the test system is Lolium multiflorum. The description is as above. In kind it is in vivo. Conditions: 80 g/ha, scored visually after approx. 3 weeks, 100% = plants have died, 0% = like control.
Text: as §2, §3

The test system of assay [12] is Stellaria media. Described as above. Format: in vivo. Conditions: 80 g/ha, scored visually after approx. 3 weeks, 100% = plants have died, 0% = like control.
Text: as §2, §3

The test system of assay [13] is Viola tricolor. Described as above. Conditions: 80 g/ha, scored visually after approx. 3 weeks, 100% = plants have died, 0% = like control. Format: in vivo.
Text: as §2, §3

For assay [14], the system named is Cyperus esculentus. The description is as above. Particulars: 80 g/ha, scored visually after approx. 3 weeks, 100% = plants have died, 0% = like control. Format: in vivo.
Text: as §2, §3

Assay [15] deals with Alopecurus myosuroides. The description is as above. Format: in vivo. Particulars: 80 g/ha, scored visually after approx. 3 weeks, 100% = plants have died, 0% = like control.
Text: as §2, §3

Assay [16] has as its system Matricaria inodora. The description is as above. Particulars: 80 g/ha, scored visually after approx. 3 weeks, 100% = plants have died, 0% = like control. In kind it is in vivo.
Text: as §2, §3

Assay [17] concerns Amaranthus retroflexus. Kind of assay: Post-emergence herbicidal activity, greenhouse pot test. Format: in vivo. Conditions: one-leaf stage, 80 g/ha, scored visually after approx. 3 weeks, 100% = plants have died, 0% = like control. As to the method: as §1

For `COc1cc(C)nc(NC(=O)NS(=O)(=O)c2ccccc2OC(C)C(F)(F)F)n1` (stereo not shown) [Compound I-2], the “herbicidal activity PHBPU” value in assay [1] and in [9] was 80% throughout. Also, the “herbicidal activity ABUTH” value in [2] is on record as 90%. Further, the “herbicidal activity POLCO” value in assay [3] is 90%. In addition, the “herbicidal activity ECHCG” value in assay [4] came to 80%. For the same molecule, the results for the “herbicidal activity VIOTR” value in assay [5] and in assay [13] were 90% and 80%, respectively. Besides, the “herbicidal activity CYPES” value in assay [6] was 80%; in assay [14], 100%. Moreover, the “herbicidal activity ALOMY” value in assay [7] and in [15] was 90% each time. In addition, the “herbicidal activity MATIN” value in [8] and in assay [16] was 80% throughout. The “herbicidal activity VERPE” value in assay [10] came out at 80%. Moreover, the “herbicidal activity LOLMU” value in [11] is on record as 90%. The “herbicidal activity STEME” value in assay [12] came to 80%.
For `COc1nc(C)nc(NC(=O)NS(=O)(=O)c2ccccc2OC(C)C(F)(F)F)n1` (stereo not shown) [Compound I-5, N-[(4-Methoxy-6-methyl-1,3,5-triazin-2-yl)carbamoyl]-2-(2,2,2-trifluoro-1-methylethoxy)benzenesulfonamide], the “herbicidal activity PHBPU” value in [1] amounted to 90%; in assay [9] it was 80%. For the same molecule, in [2], the “herbicidal activity ABUTH” value is listed as 90%. For the same molecule, the “herbicidal activity AMARE” value in assay [17] was determined as 100%. Further, the “herbicidal activity POLCO” value in assay [3] is 90%. Further, the results for the “herbicidal activity VIOTR” value in [5] and in [13] were 90% and 80%, respectively. The “herbicidal activity ALOMY” value in assay [7] and in assay [15] was 90% throughout. Further, the “herbicidal activity MATIN” value is on record as 90% in [8] and 80% in assay [16]. In assay [10], the “herbicidal activity VERPE” value is 90%. The “herbicidal activity STEME” value in assay [12] is 80%.
As for `COc1cc(Cl)nc(NC(=O)NS(=O)(=O)c2ccccc2OC(C)C(F)(F)F)n1` (stereo not shown) [Compound I-3], the entries for the “herbicidal activity PHBPU” value in assay [1] and in [9] were 90% and 80%, respectively. Moreover, the “herbicidal activity ABUTH” value in assay [2] stood at 90%. Moreover, the “herbicidal activity POLCO” value in assay [3] was 80%. In assay [5], the “herbicidal activity VIOTR” value was 80%. The “herbicidal activity CYPES” value in [6] stood at 80%; in [14], 100%. The “herbicidal activity ALOMY” value in assay [7] and in [15] was 80% in each case. Further, the results for the “herbicidal activity MATIN” value in [8] and in [16] were 90% and 80%, respectively. Besides, in assay [10], the “herbicidal activity VERPE” value is listed as 80%. In [11], the “herbicidal activity LOLMU” value was 80%.
In the case of `COc1cc(OC)nc(NC(=O)NS(=O)(=O)c2ccccc2OC(C)C(F)(F)F)n1` (stereo not shown) [Compound I-4], the “herbicidal activity PHBPU” value in assay [1] and in assay [9] was 80% each time. Moreover, the “herbicidal activity ABUTH” value in assay [2] worked out at 100%. For the same molecule, the “herbicidal activity POLCO” value in [3] is 80%. The “herbicidal activity ECHCG” value in [4] was determined as 80%. Further, the “herbicidal activity VIOTR” value is on record as 90% in [5] and 80% in assay [13]. In addition, the entries for the “herbicidal activity CYPES” value in assay [6] and in [14] were 80% and 90%, respectively. Also, the “herbicidal activity ALOMY” value in assay [7] was found to be 90%; in [15] it was 80%. The entries for the “herbicidal activity MATIN” value in [8] and in [16] were 90% and 80%, respectively. The “herbicidal activity VERPE” value in [10] is recorded as 80%. Also, the “herbicidal activity LOLMU” value in assay [11] was found to be 80%.
For `Cc1cc(C)nc(NC(=O)NS(=O)(=O)c2ccccc2OC(C)C(F)(F)F)n1` (stereo not shown) [Compound I-1, N-[(4,6-Dimethylpyrimidin-2-yl)carbamoyl]-2-(2,2,2-trifluoro-1-methylethoxy)-benzenesulfonamide], the “herbicidal activity ABUTH” value in assay [2] came out at 90%. The “herbicidal activity AMARE” value in assay [17] came to 80%. In addition, the “herbicidal activity POLCO” value in assay [3] was determined as 90%. Further, in assay [4], the “herbicidal activity ECHCG” value came out at 80%. Moreover, the “herbicidal activity CYPES” value in [6] is 80%. In addition, the figures for the “herbicidal activity ALOMY” value in [7] and in [15] were 90% and 80%, respectively. Further, in [8], the “herbicidal activity MATIN” value turned out to be 80%. The “herbicidal activity LOLMU” value in assay [11] turned out to be 80%.
With `COc1nc(NC(=O)NS(=O)(=O)c2ccccc2OC(C)C(F)(F)F)nc(OC)n1` (stereo not shown) [Compound I-6], the “herbicidal activity PHBPU” value in assay [1] was 90%; in [9] it was 80%. The “herbicidal activity ABUTH” value in [2] is reported as 90%. Further, the “herbicidal activity AMARE” value in [17] was 80%. In addition, the “herbicidal activity POLCO” value in assay [3] was 90%. Besides, the “herbicidal activity VIOTR” value was determined as 90% in assay [5] and 80% in [13]. The “herbicidal activity MATIN” value in assay [8] was 90%; in assay [16], 80%. Moreover, the “herbicidal activity VERPE” value in assay [10] is 80%. The “herbicidal activity STEME” value in [12] was found to be 80%. In addition, in [14], the “herbicidal activity CYPES” value stood at 100%. Moreover, the “herbicidal activity ALOMY” value in [15] came out at 80%.
